This is an account of results in patent US20220008499A1, “COMPOUNDS, COMPOSITIONS AND METHODS FOR TREATING SEPSIS” (FERRING B.V., priority 2018, published 2022).

Bridge positions count the residues as written; N and C are the ends. Square brackets hold non-standard residues; d marks the D form. Peptide text beside a SMILES is read from it. Orn(iPr) = CC(C)NCCC[C@H](N)C(=O)O; Aad = N[C@@H](CCCC(=O)O)C(=O)O

The subject of experiment [1] is patients with vasopressor-dependent sepsis and septic shock. Briefly: randomized, placebo-controlled, adaptive clinical study of selepressin plus standard care. In kind it is in vivo, human. On the set-up: Estimated 30-day mortality (up to day 30) / Estimated 30-day mortality, treatment difference vs placebo: concentration or dose not given beside the values. Conditions: for improvement in estimated VFDs compared with placebo (more): up to day 30; for Est P&VFDs: all patients / Estimated Pressor and Ventilator Free days (P&VFDs): all patients: all doses pooled; for Est % mortality, treatment difference vs placebo / Est P&VFDs: all patients, treatment difference vs placebo / Est P&VFDs: survivors, treatment difference vs placebo / Estimated P&VFDs: all patients, treatment difference vs placebo / Estimated 30-day mortality, treatment difference vs placebo / Estimated P&VFDs: survivors only, treatment difference vs placebo: selepressin minus placebo; for Estimated Pressor and Ventilator Free days (P&VFDs): all patients: up to Day 30. The text has this: The study described in the following examples was a randomized, placebo-controlled, seamless two-part, adaptive clinical study. […] The term “vasopressor-dependent sepsis” includes all patients with sepsis requiring vasopressor therapy. Septic shock includes patients with sepsis who require vasopressor therapy and who have a serum lactate concentration of ≥2 mmol/L.
The inclusion and exclusion criteria for the trial are set out below.
Inclusion Criteria • 18 years of age or older • Proven or suspected infection Septic shock defined as hypotension (systolic blood pressure less than 90 mm Hg or • Mean arterial pressure less than 65 mm Hg requiring vasopressor treatment (i.e., any dose of norepinephrine/noradrenaline base greater than […]) despite adequate fluid resuscitation (at least 1 litre for hypotension) • Informed consent obtained in accordance with local regulations
Exclusion Criteria • Unable to initiate treatment with selepressin or placebo within 12 h of onset of vasopressor treatment for septic shock • Primary cause of hypotension not due to sepsis • Previous severe sepsis with intensive care admission within this hospital stay • Known/suspected acute mesenteric ischemia • Suspicion of concomitant acute coronary syndrome based on clinical symptoms and/or electrocardiogram findings during this episode of septic shock • Chronic mechanical ventilation for any reason or severe chronic obstructive pulmonary disease (COPD) requiring either continuous daily oxygen use during the preceding 30 days or mechanical ventilation (for acute exacerbation of COPD) during the preceding 30 days • Received bone marrow transplant during the preceding 6 months or chemotherapy during the preceding 30 days for lymphoma or leukemia • Known to be pregnant Decision to limit full care taken before obtaining informed consent • Use of vasopressin in the past 12 hours before start of selepressin or placebo or use of terlipressin within 7 days of start of selepressin or placebo • Prior enrollment in the study • Prior use of an investigational medicinal product within the last month or planned or concurrent participation in a clinical trial for any investigational drug or investigational device
Additional Criteria that Must be Met at the Time of the Start of the Infusion of Selepressin or Placebo • Received a minimum of 30 ml/kg fluid in total from the onset of hypotension (not required if there is evidence of adequate fluid repletion or overload) • Received a continuous infusion of norepinephrine/noradrenaline base greater than […] for at least 1 h and is still receiving at least […] norepinephrine/noradrenaline base • Less than 12 h since onset of vasopressor treatment for septic shock
The targeted study population is a typical sample of patients presenting with vasopressor-dependent sepsis, defined by failing to respond to intravenous fluid replacement and requiring vasopressors for at least 1 hour, in whom treatment with selepressin or placebo could be initiated within 12 hours of the initiation of vasopressors.
The study drug was the continuous intravenous infusion of either the experimental agent or a matching placebo. In all instances, subjects received study infusion and standard care. The possible treatment arms were: Placebo; selepressin starting infusion rate 1.7 ng/kg/min to maximum 2.5 ng/kg/min; selepressin starting 2.5 ng/kg/min to maximum 3.75 ng/kg/min; selepressin starting 3.5 ng/kg/min to maximum 5.25 ng/kg/min; and selepressin starting 5.0 ng/kg/min to 7.5 ng/kg/min. […] This latter approach sought to wean all other vasoactive agents as soon as possible, and in a specified order, beginning with any open-label vasopressor other than norepinephrine, followed by norepinephrine, and finally the blinded study infusion. All patients received the study infusion until recovery from the need of vasopressor treatment or for 30 days, whichever came first. […]

The target of experiment [2] is human vasopressin V1a receptor (Homo sapiens, UniProt P37288). The settings on record: relative to the V1b, V2, and oxytocin receptors; cited from earlier work.
human vasopressin V1a receptor, sequence (P37288 whole entry): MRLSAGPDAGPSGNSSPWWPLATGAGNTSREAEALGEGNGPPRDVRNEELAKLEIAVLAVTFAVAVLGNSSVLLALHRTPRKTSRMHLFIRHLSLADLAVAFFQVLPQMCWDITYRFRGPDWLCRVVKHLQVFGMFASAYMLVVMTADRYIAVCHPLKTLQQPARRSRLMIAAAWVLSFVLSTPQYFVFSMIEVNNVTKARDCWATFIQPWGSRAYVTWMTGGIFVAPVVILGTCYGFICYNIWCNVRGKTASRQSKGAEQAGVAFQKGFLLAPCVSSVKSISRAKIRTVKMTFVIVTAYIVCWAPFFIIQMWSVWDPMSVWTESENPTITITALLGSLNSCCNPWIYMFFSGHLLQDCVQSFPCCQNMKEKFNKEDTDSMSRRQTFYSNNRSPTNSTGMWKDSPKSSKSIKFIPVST
The test system of experiment [3] is other receptors, ion channels, or transporters. The settings on record: cited from earlier work.
The test system of experiment [4] is patients with septic shock. Conditions: cited from earlier work.
The mark [5] stands for this setting: baseline serum lactate <2 mmol/L, n = 184.
Where [6] appears, read: baseline serum lactate <2 mmol/L.
[7] abbreviates: baseline serum lactate ≥2 mmol/L, n = 340.
The mark [8] stands for this setting: baseline serum lactate ≥2 mmol/L.

On to `CC[C@H](C)[C@@H]1NC(=O)[C@H](Cc2ccccc2)NC(=O)[C@@H](N)CSSC[C@@H](C(=O)N2CCC[C@H]2C(=O)N[C@@H](CCCNC(C)C)C(=O)NCC(N)=O)NC(=O)[C@H](CC(N)=O)NC(=O)[C@H](CCCC(N)=O)NC1=O` [Selepressin, selepressin] (H-CFI[Aad](NH2)NCP[Orn(iPr)]G-NH2; disulfide 1-6), for which the “mortality and patient outcomes (pressor and mechanical ventilator free days)” value in experiment [1] (PaO2/FiO2 greater than about 200 prior to treatment) is “improved mortality and improved patient outcomes”. For the same molecule, the “mortality and patient outcomes (P&VFDs)” value in experiment [1] (administered within six hours from when the patient requires vasopressor therapy) was “improved mortality and improved patient outcomes”; in experiment [1] (serum lactate less than about 2 mmol/L prior to treatment), “improved mortality and improved patient outcomes”. For the same molecule, the “improvement in estimated VFDs compared with placebo (more)” value is recorded as 2.1 in experiment [1] (baseline PaO2/FiO2 200-300 mmHg, FIG. 1) and 4.8 in experiment [1] (baseline PaO2/FiO2 ≥300 mmHg, FIG. 1). Also, the “outcomes (VFDs) compared with placebo” value in experiment [1] (baseline PaO2/FiO2 <100 mmHg, FIG. 1) is on record as “slightly worse”. In addition, the Est % mortality in experiment [1] (setting [5]) was 21.39%; in experiment [1] (setting [7]), 40.04%. The “Est P&VFDs: all patients” value in experiment [1] (setting [5]) is 17.53; in experiment [1] (setting [7]) it was 13.87. The figures for the “Est % mortality, treatment difference vs placebo” value in experiment [1] (setting [6]) and in experiment [1] (setting [8]) were −6.32% and 3.96%, respectively. The “Est P&VFDs: all patients, treatment difference vs placebo” value in experiment [1] (setting [6]) is given as 2.34; in experiment [1] (setting [8]), −0.67. Moreover, the “Est P&VFDs: survivors” value in experiment [1] (setting [6]) is listed as 22.30; in experiment [1] (setting [8]), 23.14. Further, the “Est P&VFDs: survivors, treatment difference vs placebo” value was 1.29 in experiment [1] (setting [6]) and 0.38 in experiment [1] (setting [8]). Also, the “improvement in mortality compared with placebo (less)” value in experiment [1] (serum lactate <2 mmol/L at baseline) was 6.32%; in experiment [1] (treatment between zero and up to six hours from when patient required vasopressor), 6.57%. Besides, the “Estimated Pressor and Ventilator Free days (P&VFDs): all patients” value is on record as 14.56 days in experiment [1] (treatment <6 hours from when patient required vasopressor, n = 147) and 15.59 days in experiment [1] (treatment ≥6 hours, n = 415). The “Estimated P&VFDs: all patients, treatment difference vs placebo” value in experiment [1] (treatment <6 hours from when patient required vasopressor) is 2.08 days; in experiment [1] (treatment ≥6 hours), -0.05 days. In addition, the “Estimated 30-day mortality (up to day 30)” value in experiment [1] (treatment <6 hours, n = 147) is reported as 35.73%; in experiment [1] (treatment ≥6 hours, n = 415), 33.79%. For the same molecule, the “Estimated 30-day mortality, treatment difference vs placebo” value in experiment [1] (treatment <6 hours) is −6.57%; in experiment [1] (treatment ≥6 hours), 2.91%. Besides, the “Estimated Pressor and Ventilated Free Days (P&VFDs): survivors only” value was 22.66 days in experiment [1] (treatment <6 hours) and 23.55 days in experiment [1] (treatment ≥6 hours). Moreover, the “Estimated P&VFDs: survivors only, treatment difference vs placebo” value in experiment [1] (treatment <6 hours) is on record as 1.02 days; in experiment [1] (treatment ≥6 hours) it was 0.92 days. Besides, the “affinity and selectivity for V1a receptor” value in experiment [2] is “high affinity and selectivity”. Further, in experiment [3], the “affinity for other receptors, ion channels, or transporters” value was “no known affinity”.

Regarding `NC(=O)CC[C@@H]1NC(=O)[C@H](Cc2ccccc2)NC(=O)[C@H](Cc2ccc(O)cc2)NC(=O)[C@@H](N)CSSC[C@@H](C(=O)N2CCC[C@H]2C(=O)N[C@@H](CCCN=C(N)N)C(=O)NCC(N)=O)NC(=O)[C@H](CC(N)=O)NC1=O` [vasopressin], in experiment [4] (all patients), the “overall mortality compared with norepinephrine” value is listed as “not different”. For the same molecule, in experiment [4] (patients requiring 5-14 ug/min of norepinephrine at enrollment), the “mortality compared with norepinephrine” value is “decreased mortality”.
